Measurements as given in patent US20230364052A1, “COMPOSITION AND METHOD FOR TREATING AUTISM” (ZELIRA THERAPEUTICS OPERATIONS PTY LTD, priority 2017, published 2023).

System: patients with ASD diagnosis according to DSM-5
Experiment: Retrospective review of ASD patients treated with Cannabis extracts; clinical response by CGI-I Scale
Assay type: in vivo
Details: 66.6% of the ASD patients, treated before Cannabis therapy
Method: A retrospective review of patients seen between June 2016 and March 2017 with ASD diagnosis according to DSM-5 (persistent deficits in social communication and interaction; restricted, repetitive patterns of behaviour, interests, or activities; symptoms present in the early developmental period; cause clinically significant impairment in social, occupational, or other areas of current functioning; not explained by intellectual disability nor global developmental delay) who were treated with Cannabis extracts for at least a 12-week period was completed. Demographic/clinical data, neuroimaging/EEG studies, vision, audition, genetic, and metabolic tests, parental/school/neuropsychological reports were reviewed.
The patients were administered with the cannabinoids sublingually (sublingual drops or “rice grain” method—see Example 1) twice daily (BID) for the duration of their treatment. The Cannabis extracts were obtained from the Moby Dick, Sharck, Durga mata or Nebula strains of Cannabis. For 10 out of the 21 patients included in the study, the total daily dosage of CBD and THC (measured by HPLC) and CBD:THC ratio were calculated and discussed further below.
The initial severity of symptoms presenting in the patients was assessed according to the criteria provided in the DSM-5, and are shown in FIG. 3.
The selected patients consisted of twenty (20) children and 1 adult (Mean age: 9 years, 10 month (range: 26 mo-22 yo), 15 males).
Mean follow-up after starting Cannabis therapy was 7.6 mo (range: 3-12 months). According to Cannabis strain, 71.5% of patients received balanced CBD:THC extracts; 19.0% high-CBD (e.g. Table 3; Formulations 1-3), and 9.5% high-THC extracts (e.g. Table 3; Formulation 6). The administered daily dose of CBD and THC was measured in 10 patients; 9 of them received […] and one high-THC extracts (Tables 2 and 3).

Structure (SMILES) | response to previous treatment
OCCOCCN1CCN(C2=Nc3ccccc3Sc3ccccc32)CC1 [quetiapine] | without good response and/or with undesirable adverse events
O=C1CCc2ccc(OCCCCN3CCN(c4cccc(Cl)c4Cl)CC3)cc2N1 [aripiprazole] | without good response and/or with undesirable adverse events
COC(=O)C(c1ccccc1)C1CCCCN1 (stereo not shown) [methylphenidate] | without good response and/or with undesirable adverse events
Cc1nc2n(c(=O)c1CCN1CCC(c3noc4cc(F)ccc34)CC1)CCCC2 [risperidone] | without good response and/or with undesirable adverse events
